The record followed here is patent US4898943A, “Tricyclic triazolopyrimidine derivatives” (Daiichi Seiyaku Co., Ltd., priority 1987, dated 1990).

One data set is described as follows: Acute toxicity test. To be noted: mouse, in vivo, po; p.o. in mice.
The test system of a further data set is PCA reaction. As to the kind of experiment: PCA test (48-hour passive cutaneous anaphylaxis), oral administration. Type of data set: in vivo. Particulars: Rattus norvegicus, 10 mg/kg orally, 30 minutes before antigen challenge, male Sprague-Dawley rats. How it is done: Each of Sprague-Dawley female rats weighing 170 to 250 g (CRJ-CD(SD), Charles River Japan Inc.) was intramuscularly administered with 5 mg/kg-body weight of egg albumin dissolved in saline, and then 1 ml of a suspension of Bordetella pertussis vaccine (2×10^10 organism) in saline was administered intraperitoneally to the rat. On day 10, 3,000 larvae animal of Nippostrongylus brasiliensis were subcutaneously administered to the rats. On day 24, blood was drawn from the rats to obtain an antiserum.
The antiserum was diluted with saline so as to provide a blue spot having a diameter of about 10 mm in the following control group.
Male sprague-Dawley rats weighing about 180 g (5 rats per group) were sensitized by injecting 0.05 ml of the diluted antiserum into the shaved dorsal skin. Fourty-eight hours later, 1 ml of saline containing 0.5% Evans blue and 5 mg of egg albumin was administered to each of the rats via a tail vein. After 30 minutes, the rats were sacrificed by decapitation. The dorsal skin was removed, and the amount of the dye in the blue spot area was measured in accordance with the method of Katayama et al., Microbiol. Immunol., Vol. 22, 89-101 (1978).
Ten milligrams of the test compound was suspended in 5 ml of a 0.5% CMC aqueous solution, and the suspension was orally administered to each of the rats in an amount of 10 mg/kg 30 minutes before the antigen challenge. On the other hand, a control group received only a 0.5% CMC solution.
The inhibitory activity on the PCA reaction in the treated group was calculated by the following equation: [formula] wherein V represents a mean value of the dye amount in the blue spot area in the control group; and W represents a mean value of the dye amount in the blue spot area in the treated group.

Consider `O=c1c2[nH]nnc2nc2sc(CCC3CCCC3)nn12` [Example 2], for which the LD50 in “Acute toxicity test” was 2000 to 4000 mg/kg. In the data set with PCA reaction, at 10 mg/kg the inhibition was 62%.

With `O=c1c2[nH]nnc2nc2sc(CC3CCCCC3)nn12` [Example 4], in the data set with PCA reaction, 10 mg/kg produced 77% inhibition.

With `O=c1c2[nH]nnc2nc2sc(CCCC3CCCC3)nn12` [Example 3], in “Acute toxicity test”, the LD50 was more than 4000 mg/kg. In addition, the inhibition at 10 mg/kg in the data set with PCA reaction was found to be 91%.

The compound `O=c1c2[nH]nnc2nc2sc(CCC3CCCCCC3)nn12` [Example 9] yielded an LD50 in “Acute toxicity test” of more than 4000 mg/kg. Moreover, in the data set with PCA reaction, the inhibition at 10 mg/kg amounted to 88%.

For the compound `O=c1c2[nH]nnc2nc2sc(CCC3CCCCC3)nn12` [Example 1, 6-(2-Cyclohexylethyl)-[1,3,4]thiadiazolo-[3,2-a][1,2,3]triazolo[4,5-d]pyrimidin-9-(1H)-one], in the data set “Acute toxicity test”, the LD50 is more than 4000 mg/kg. In addition, in the data set on PCA reaction, 10 mg/kg produced 81% inhibition.

In the case of `O=c1c2[nH]nnc2nc2sc(CCCC3CCCCC3)nn12` [Example 5], in the data set “Acute toxicity test”, the LD50 was more than 4000 mg/kg.

As a reminder, the LD50 is the dose expected to kill half of the subjects tested. In general, inhibition refers to the percentage by which the read-out fell short of the control.
